{"source": "PubChem BioAssay AID766", "about": "(NMMLSC, 2007)"}
{"biological_target": "N-formyl peptide receptor 2 (Homo sapiens) (UniProt P25090)", "sequence (P25090 whole entry, looked up)": "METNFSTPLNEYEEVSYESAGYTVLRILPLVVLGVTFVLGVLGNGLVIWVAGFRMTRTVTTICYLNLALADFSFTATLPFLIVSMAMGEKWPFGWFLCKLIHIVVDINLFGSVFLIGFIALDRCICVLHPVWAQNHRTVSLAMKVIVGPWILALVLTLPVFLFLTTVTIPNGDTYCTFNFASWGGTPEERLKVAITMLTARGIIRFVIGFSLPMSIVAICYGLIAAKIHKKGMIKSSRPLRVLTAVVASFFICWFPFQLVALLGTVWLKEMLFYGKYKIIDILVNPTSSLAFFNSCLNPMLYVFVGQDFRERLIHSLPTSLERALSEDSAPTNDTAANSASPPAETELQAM", "experiment": "human FPR2 ligand displacement potency – cell-based, flow cytometry, Ki from IC50, dose response (AID 766)", "conditions": "FPRL1-expressing cells, fluorescent ligand binding competition, binding constant from IC50", "units": {"Ki": "µM"}}
{"smiles": "CCC(=O)Nc1cc(-c2cn3cccnc3n2)ccc1OC", "Ki": 6.5}
{"smiles": "COc1ccc(-c2cc(C(F)(F)F)nc(N3CCN(Cc4ccccc4)CC3)n2)cc1OC", "Ki": 10}
{"smiles": "COc1ccc(-c2cn3cccnc3n2)cc1NC(=O)C(C)C", "Ki": 2.2}
{"smiles": "CCOC(=O)N1CCN(c2nc(-c3ccc(OC)c(OC)c3)cc(C(F)(F)F)n2)CC1", "Ki": "> 30.5"}
{"smiles": "COc1ccc(-c2cc(C(F)(F)F)nc(N3CCN(C(c4ccccc4)c4ccccc4)CC3)n2)cc1OC", "Ki": "> 25.1"}
{"smiles": "COc1ccc(-c2cn3cccnc3n2)cc1NC(=O)C1CC1", "Ki": 4.1}
{"smiles": "COc1ccc(CC(=O)Nc2cc(-c3cn4cccnc4n3)ccc2OC)cc1", "Ki": 6}
{"smiles": "O=C(N1CCN(c2nc(-c3ccccc3)c3ccccc3n2)CC1)C(F)(F)F", "Ki": "> 34.7"}
{"smiles": "COc1ccc(-c2cn3cccnc3n2)cc1NC(=O)C1CCCC1", "Ki": "> 39.9"}
{"smiles": "COc1ccc(-c2cc(C(F)(F)F)nc(N3CCN(c4ccccc4)CC3)n2)cc1OC", "Ki": "> 30.2"}
